This is an account of results in PubChem BioAssay AID1259407 (Chemical Carcinogenesis Research Information System (CCRIS), 2018).

In this series the test system is CCRIS mutagenicity, Ames/micronucleus/aberration tests. Description: CCRIS mutagenicity studies.
Setting [1] is: Test System: AMES SALMONELLA TYPHIMURIUM, Strain/Indicator: TA98, Metabolic Activation: NONE, Method: STANDARD PLATE.
[2] abbreviates: Test System: AMES SALMONELLA TYPHIMURIUM, Strain/Indicator: TA100, Metabolic Activation: NONE, Method: STANDARD PLATE.
The mark [3] stands for this setting: Test System: AMES SALMONELLA TYPHIMURIUM, Strain/Indicator: TA1535, Metabolic Activation: NONE, Method: STANDARD PLATE.
Setting [4] is: Test System: AMES SALMONELLA TYPHIMURIUM, Strain/Indicator: TA98, Metabolic Activation: NONE, Method: PREINCUBATION
Where [5] appears, read: Test System: AMES SALMONELLA TYPHIMURIUM, Strain/Indicator: TA100, Metabolic Activation: NONE, Method: PREINCUBATION

The source made the active and inactive calls. How the calls were made is not given here.

Take `C#C[C@]1(O)CC[C@H]2[C@@H]3CCc4cc(OC)ccc4[C@H]3CC[C@@]21C`: the mutagenic call reads like this: (End Point: IN VITRO CHROMOSOMAL ABERRATIONS, Test System: HUMAN PERIPHERAL LYMPHOCYTES, Metabolic Activation: NONE) “active; positive (total aberrations excluding gaps); positive at higher dose levels”; (End Point: IN VIVO CHROMOSOMAL ABERRATIONS, Test System: BONE MARROW CELLS, Species: MOUSE, Strain/Sex: SWISS/MALE, Route: IP INJECTION (ONCE)) “active; positive”; (End Point: IN VIVO MICRONUCLEUS, Test System: BONE MARROW POLYCHROMATIC ERYTHROCYTES, Species: MOUSE, Strain/Sex: SWISS/MALE, Route: IP INJECTION (SINGLE DOSE)) “active; positive”; (Test System: AMES SALMONELLA TYPHIMURIUM, Strain/Indicator: TA97A, Metabolic Activation: NONE, Method: STANDARD PLATE) “inactive; negative”; (Test System: AMES SALMONELLA TYPHIMURIUM, Strain/Indicator: TA97A, Metabolic Activation: RAT, LIVER, S-9, PHENOBARBITONE, Method: PREINCUBATION) “inactive; negative”; under setting [1], “inactive; negative”. The mutagenic call (Test System: AMES SALMONELLA TYPHIMURIUM, Strain/Indicator: TA98, Metabolic Activation: RAT, LIVER, S-9, PHENOBARBITONE, Method: PREINCUBATION) is “inactive; negative”; the mutagenic call under setting [2] was “inactive; negative”; the mutagenic call (Test System: AMES SALMONELLA TYPHIMURIUM, Strain/Indicator: TA100, Metabolic Activation: RAT, LIVER, S-9, PHENOBARBITONE, Method: PREINCUBATION) was “inactive; negative”; the mutagenic call under setting [3] was “inactive; negative”; the mutagenic call (Test System: AMES SALMONELLA TYPHIMURIUM, Strain/Indicator: TA1535, Metabolic Activation: RAT, LIVER, S-9, PHENOBARBITONE, Method: PREINCUBATION) is “inactive; negative”; the mutagenic call (Test System: HOST-MEDIATED ASSAY WITH SALMONELLA, Strain/Indicator: TA97A, Metabolic Activation: MALE SWISS MOUSE, SALMONELLA ADMINISTERED 4 HR AFTER 2ND INJECTION: SACRIFICE 2 HR LATER, Method: 2 INJECTIONS AT 12 HR INTERVAL) was “inactive; negative”. Further, the mutagenic call reads like this: (Test System: HOST-MEDIATED ASSAY WITH SALMONELLA, Strain/Indicator: TA98, Metabolic Activation: MALE SWISS MOUSE, SALMONELLA ADMINISTERED 4 HR AFTER 2ND INJECTION: SACRIFICE 2 HR LATER, Method: 2 INJECTIONS AT 12 HR INTERVAL) “inactive; negative”; (Test System: HOST-MEDIATED ASSAY WITH SALMONELLA, Strain/Indicator: TA100, Metabolic Activation: MALE SWISS MOUSE, SALMONELLA ADMINISTERED 4 HR AFTER 2ND INJECTION: SACRIFICE 2 HR LATER, Method: 2 INJECTIONS AT 12 HR INTERVAL) “inactive; negative”; (Test System: HOST-MEDIATED ASSAY WITH SALMONELLA, Strain/Indicator: TA1535, Metabolic Activation: MALE SWISS MOUSE, SALMONELLA ADMINISTERED 4 HR AFTER 2ND INJECTION: SACRIFICE 2 HR LATER, Method: 2 INJECTIONS AT 12 HR INTERVAL) “inactive; negative”.
Regarding `CC(=O)Oc1ccc(CO)cc1`, under setting [2], the mutagenic call is “inactive; negative”.
As to `NC(=O)c1ccc(N)cc1`, the mutagenic call (Test System: AMES SALMONELLA TYPHIMURIUM, Strain/Indicator: TA98, Metabolic Activation: HAMSTER, LIVER, S-9, AROCLOR 1254, Method: STANDARD PLATE) is “inactive; negative”; the mutagenic call under setting [1] was “inactive; negative”; the mutagenic call (Test System: AMES SALMONELLA TYPHIMURIUM, Strain/Indicator: TA98, Metabolic Activation: RAT, LIVER, S-9, AROCLOR 1254, Method: STANDARD PLATE) was “inactive; negative”; the mutagenic call (Test System: AMES SALMONELLA TYPHIMURIUM, Strain/Indicator: TA100, Metabolic Activation: HAMSTER, LIVER, S-9, AROCLOR 1254, Method: STANDARD PLATE) was “inactive; negative”; the mutagenic call under setting [2] was “inactive; negative”; the mutagenic call (Test System: AMES SALMONELLA TYPHIMURIUM, Strain/Indicator: TA100, Metabolic Activation: RAT, LIVER, S-9, AROCLOR 1254, Method: STANDARD PLATE) was “inactive; negative”. Besides, the mutagenic call runs as follows: (Test System: AMES SALMONELLA TYPHIMURIUM, Strain/Indicator: TA1535, Metabolic Activation: HAMSTER, LIVER, S-9, AROCLOR 1254, Method: STANDARD PLATE) “inactive; negative”; under setting [3], “inactive; negative”; (Test System: AMES SALMONELLA TYPHIMURIUM, Strain/Indicator: TA1535, Metabolic Activation: RAT, LIVER, S-9, AROCLOR 1254, Method: STANDARD PLATE) “inactive; negative”; (Test System: AMES SALMONELLA TYPHIMURIUM, Strain/Indicator: TA1537, Metabolic Activation: HAMSTER, LIVER, S-9, AROCLOR 1254, Method: STANDARD PLATE) “inactive; negative”; (Test System: AMES SALMONELLA TYPHIMURIUM, Strain/Indicator: TA1537, Metabolic Activation: NONE, Method: STANDARD PLATE) “inactive; negative”; (Test System: AMES SALMONELLA TYPHIMURIUM, Strain/Indicator: TA1537, Metabolic Activation: RAT, LIVER, S-9, AROCLOR 1254, Method: STANDARD PLATE) “inactive; negative”. In addition, the mutagenic call (Test System: AMES SALMONELLA TYPHIMURIUM, Strain/Indicator: TA1538, Metabolic Activation: HAMSTER, LIVER, S-9, AROCLOR 1254, Method: STANDARD PLATE) was “inactive; negative”; the mutagenic call (Test System: AMES SALMONELLA TYPHIMURIUM, Strain/Indicator: TA1538, Metabolic Activation: NONE, Method: STANDARD PLATE) is “inactive; negative”; the mutagenic call (Test System: AMES SALMONELLA TYPHIMURIUM, Strain/Indicator: TA1538, Metabolic Activation: RAT, LIVER, S-9, AROCLOR 1254, Method: STANDARD PLATE) is “inactive; negative”; the mutagenic call (Test System: Mouse lymphoma, Strain/Indicator: L5178Y (tk+/tk-), Metabolic Activation: None, Method: Suspension/plate) is “inactive; negative”; the mutagenic call (Test System: Mouse lymphoma, Strain/Indicator: L5178Y (tk+/tk-), Metabolic Activation: Rat, Liver, S-9, Aroclor 1254, Method: Suspension/plate) is “inactive; negative”.
With `Cc1ccc(S(=O)(=O)OC(C)C)cc1`, the mutagenic call (End Point: IN VITRO MICRONUCLEUS, Test System: MOUSE LYMPHOMA L5178Y CELLS, Metabolic Activation: NONE) is “active; positive”; the mutagenic call (End Point: IN VITRO MICRONUCLEUS, Test System: MOUSE LYMPHOMA L5178Y CELLS, Metabolic Activation: RAT, LIVER, S-9) was “active; positive”; the mutagenic call (End Point: In vitro micronucleus, Test System: Chinese Hamster Ovary (CHO-WBL) cells, Metabolic Activation: None) was “active; positive (p<0.05)”; the mutagenic call under setting [2] is “active; positive”; the mutagenic call (Test System: AMES SALMONELLA TYPHIMURIUM, Strain/Indicator: TA100, Metabolic Activation: RAT, LIVER, S-9, Method: STANDARD PLATE) was “active; positive”.
On to `CSC[C@H](NC(=O)C(C)(C)SC)C(=O)O`, for which the mutagenic call runs as follows: under setting [4], “inactive; negative”; under setting [5], “inactive; negative”; (Test System: AMES SALMONELLA TYPHIMURIUM, Strain/Indicator: TA1535, Metabolic Activation: NONE, Method: PREINCUBATION) “inactive; negative”; (Test System: AMES SALMONELLA TYPHIMURIUM, Strain/Indicator: TA1537, Metabolic Activation: NONE, Method: PREINCUBATION) “inactive; negative”; (Test System: AMES SALMONELLA TYPHIMURIUM, Strain/Indicator: TA1538, Metabolic Activation: NONE, Method: PREINCUBATION) “inactive; negative”; (Test System: E. COLI, Strain/Indicator: WP2, Metabolic Activation: NONE, Method: PREINCUBATION) “inactive; negative”. In addition, under “Test System: E. COLI, Strain/Indicator: WP2 UVRA, Metabolic Activation: NONE, Method: PREINCUBATION”, the mutagenic call is “inactive; negative”.
As to `Cc1nc2c(cc(C)c3ccc4ccc(O)cc4c32)[nH]1`, for the setting “Test System: AMES SALMONELLA TYPHIMURIUM, Strain/Indicator: TA98, Metabolic Activation: RAT, LIVER, S-9, AROCLOR, Method: STANDARD PLATE”, the mutagenic call is “active; positive”.
For `[Cl][Pt-2]([Cl])([Cl])[Cl]`, the mutagenic call was “active; positive” under setting [4]; “active; positive” (Test System: AMES SALMONELLA TYPHIMURIUM, Strain/Indicator: TA98, Metabolic Activation: RAT, LIVER, S-9, AROCLOR 1254, Method: PREINCUBATION); “active; positive” under setting [5]; “active; positive” (Test System: AMES SALMONELLA TYPHIMURIUM, Strain/Indicator: TA100, Metabolic Activation: RAT, LIVER, S-9, AROCLOR 1254, Method: PREINCUBATION).
